Results from ChEMBL document CHEMBL1743341, “Cytochrome p450 enzymes mechanism based inhibitors: common sub-structures and reactivity” (Curr Drug Metab, 2005).
Each block holds one molecule with its values, some of them ahead of it.

What was measured:
CYP1A2 [1] = biological target: T1, CYP1A2 (Homo sapiens, UniProt P05177); test: (§1) Mechanism based inhibition of human cytochrome P450 1A2 measured by 7-ethoxyresorufin O-deethylation (EROD); conditions: human, probe 7-ethoxyresorufin (O-deethylation, EROD)
T1 sequence (P05177 whole entry): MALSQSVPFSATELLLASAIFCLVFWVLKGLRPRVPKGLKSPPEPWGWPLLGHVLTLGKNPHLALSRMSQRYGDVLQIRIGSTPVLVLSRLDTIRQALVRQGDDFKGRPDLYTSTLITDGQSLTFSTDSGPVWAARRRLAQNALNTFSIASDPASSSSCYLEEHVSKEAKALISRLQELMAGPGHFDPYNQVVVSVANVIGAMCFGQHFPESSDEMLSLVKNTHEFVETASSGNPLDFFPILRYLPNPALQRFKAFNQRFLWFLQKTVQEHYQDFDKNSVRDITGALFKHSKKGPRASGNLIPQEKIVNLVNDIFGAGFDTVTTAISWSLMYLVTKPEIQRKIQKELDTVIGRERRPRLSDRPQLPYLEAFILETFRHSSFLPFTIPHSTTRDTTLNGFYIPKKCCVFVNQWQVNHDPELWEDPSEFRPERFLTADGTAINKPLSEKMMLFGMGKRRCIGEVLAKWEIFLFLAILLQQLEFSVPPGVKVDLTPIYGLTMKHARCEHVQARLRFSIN

Cytochrome P450 1A2 [2] = biological target: T2, Cytochrome P450 1A2 (Homo sapiens, UniProt P05177); test: as §1
T2 sequence (P05177 whole entry): T1 sequence (P05177 whole entry)

CYP2B1 [3] = biological target: T3, CYP2B1 (Rattus norvegicus, UniProt P00176); test: (§2) Mechanism based inhibition of rat cytochrome P450 CYP2B1 measured by 7-EFC O-deethylation activity; type: ADME; conditions: rat, probe 7-EFC (O-deethylation)
T3 sequence (P00176 whole entry): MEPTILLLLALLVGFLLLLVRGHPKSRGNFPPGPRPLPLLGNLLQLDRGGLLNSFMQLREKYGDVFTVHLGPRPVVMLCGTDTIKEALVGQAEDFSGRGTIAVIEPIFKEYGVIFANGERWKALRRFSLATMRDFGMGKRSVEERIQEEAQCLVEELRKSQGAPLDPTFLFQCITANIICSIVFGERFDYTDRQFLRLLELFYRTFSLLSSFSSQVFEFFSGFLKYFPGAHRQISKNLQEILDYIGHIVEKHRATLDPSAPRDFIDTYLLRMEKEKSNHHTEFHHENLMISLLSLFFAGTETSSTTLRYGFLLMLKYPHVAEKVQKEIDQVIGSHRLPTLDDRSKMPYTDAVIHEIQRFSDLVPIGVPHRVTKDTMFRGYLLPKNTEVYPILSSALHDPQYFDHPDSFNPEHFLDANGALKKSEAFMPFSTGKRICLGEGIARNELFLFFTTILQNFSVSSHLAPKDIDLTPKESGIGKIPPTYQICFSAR

Cytochrome P450 2B1 [4] = biological target: T4, Cytochrome P450 2B1 (Rattus norvegicus, UniProt P00176); test: as §2; type: ADME
T4 sequence (P00176 whole entry): T3 sequence (P00176 whole entry)

Cytochrome P450 2B1 [5] = biological target: T4, Cytochrome P450 2B1; test: Mechanism based inhibition of rat cytochrome P450 CYP2B1 partition ratio; type: ADME
Cytochrome P450 2D6 [6] = biological target: T5, Cytochrome P450 2D6 (Homo sapiens, UniProt P10635); test: (§3) Mechanism based inhibition of human cytochrome P450 2D6 measured by dextromethorphan O-demethylation using human liver microsomes; type: ADME, Microsome
T5 sequence (P10635 whole entry): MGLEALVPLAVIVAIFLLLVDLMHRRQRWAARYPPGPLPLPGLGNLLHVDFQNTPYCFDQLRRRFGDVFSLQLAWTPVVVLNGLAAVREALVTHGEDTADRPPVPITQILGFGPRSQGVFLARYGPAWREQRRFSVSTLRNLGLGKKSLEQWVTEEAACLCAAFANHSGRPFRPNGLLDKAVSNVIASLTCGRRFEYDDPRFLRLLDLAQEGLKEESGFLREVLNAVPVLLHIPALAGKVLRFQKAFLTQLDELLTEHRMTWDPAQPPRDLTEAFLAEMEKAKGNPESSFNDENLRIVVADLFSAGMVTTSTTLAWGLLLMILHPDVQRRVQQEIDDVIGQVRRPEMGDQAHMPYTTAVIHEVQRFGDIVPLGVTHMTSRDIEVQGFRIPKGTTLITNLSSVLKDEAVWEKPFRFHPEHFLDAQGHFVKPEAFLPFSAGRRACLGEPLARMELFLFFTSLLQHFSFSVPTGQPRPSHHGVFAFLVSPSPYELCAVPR

CYP2D6 [7] = biological target: T6, CYP2D6 (Homo sapiens, UniProt P10635); test: as §3; type: ADME, Microsome; conditions: human, human liver microsomes, probe dextromethorphan
T6 sequence (P10635 whole entry): as above

Cytochrome P450 2B1 [8] = biological target: T4, Cytochrome P450 2B1; test: Mechanism based inhibition of rat cytochrome P450 CYP2B1 measured by androstenedione 16-beta-hydroxylation and R- and S- warfarin hydroxylation; type: ADME
Cytochrome P450 2D6 [9] = biological target: T5, Cytochrome P450 2D6; test: (§4) Mechanism based inhibition of human cytochrome P450 2D6 measured by dextromethorphan O-demethylation; type: ADME
CYP2D6 [10] = biological target: T6, CYP2D6; test: as §4; type: ADME; conditions: human, probe dextromethorphan
Cytochrome P450 3A4 [11] = biological target: T7, Cytochrome P450 3A4 (Homo sapiens, UniProt P08684); test: Mechanism based inhibition of human cytochrome P450 3A4 measured by lovastatin 6'-beta hydroxylase activity; type: ADME
T7 sequence (P08684 whole entry): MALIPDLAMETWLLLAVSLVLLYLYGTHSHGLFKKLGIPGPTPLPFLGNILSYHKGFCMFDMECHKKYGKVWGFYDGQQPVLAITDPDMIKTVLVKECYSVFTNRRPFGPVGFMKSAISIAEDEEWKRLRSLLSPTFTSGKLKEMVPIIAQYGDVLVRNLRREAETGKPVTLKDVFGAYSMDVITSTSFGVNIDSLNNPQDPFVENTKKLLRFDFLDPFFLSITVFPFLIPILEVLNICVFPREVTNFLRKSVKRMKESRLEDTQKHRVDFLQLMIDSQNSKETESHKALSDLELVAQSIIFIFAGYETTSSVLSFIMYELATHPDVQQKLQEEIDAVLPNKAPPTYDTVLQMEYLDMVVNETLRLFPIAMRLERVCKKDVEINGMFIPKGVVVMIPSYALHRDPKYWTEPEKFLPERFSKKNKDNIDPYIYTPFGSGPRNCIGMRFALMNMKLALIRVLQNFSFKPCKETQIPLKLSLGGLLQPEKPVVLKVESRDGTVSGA

Cytochrome P450 3A4 [12] = biological target: T7, Cytochrome P450 3A4; test: Mechanism based inhibition of human cytochrome P450 3A4 measured in vivo; type: ADME, organism-based
CYP2B1 [13] = biological target: T3, CYP2B1; test: (§5) Mechanism based inhibition of rat cytochrome P450 CYP2B1 measured by 7-pentoxyresorufin […] activity (PROD); type: ADME; conditions: rat, probe 7-pentoxyresorufin ([…], PROD)
Cytochrome P450 2B1 [14] = biological target: T4, Cytochrome P450 2B1; test: as §5; type: ADME
CYP1A2 [15] = biological target: T8, CYP1A2 (Rattus norvegicus, UniProt P04799); test: (§6) Mechanism based inhibition of rat cytochrome P450 CYP1A2 measured by 7-methoxyresorufin O-demethylation (MROD); type: ADME; conditions: rat, probe 7-methoxyresorufin (O-demethylation, MROD)
T8 sequence (P04799 whole entry): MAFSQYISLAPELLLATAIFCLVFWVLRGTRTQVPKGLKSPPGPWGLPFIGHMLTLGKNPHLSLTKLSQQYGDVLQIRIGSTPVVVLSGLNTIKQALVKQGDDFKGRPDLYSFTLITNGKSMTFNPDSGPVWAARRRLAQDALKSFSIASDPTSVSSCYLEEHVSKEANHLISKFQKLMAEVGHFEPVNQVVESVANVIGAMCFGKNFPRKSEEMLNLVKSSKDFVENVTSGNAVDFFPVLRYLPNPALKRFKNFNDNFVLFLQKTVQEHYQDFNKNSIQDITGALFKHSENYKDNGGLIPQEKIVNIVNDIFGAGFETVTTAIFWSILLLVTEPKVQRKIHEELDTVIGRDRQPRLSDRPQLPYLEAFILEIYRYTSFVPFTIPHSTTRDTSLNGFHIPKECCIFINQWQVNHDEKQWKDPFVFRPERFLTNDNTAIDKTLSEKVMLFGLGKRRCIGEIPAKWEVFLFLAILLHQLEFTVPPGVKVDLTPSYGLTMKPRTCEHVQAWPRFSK

Cytochrome P450 1A2 [16] = biological target: T9, Cytochrome P450 1A2 (Rattus norvegicus, UniProt P04799); test: as §6; type: ADME
T9 sequence (P04799 whole entry): T8 sequence (P04799 whole entry)

Cytochrome P450 2B4 [17] = biological target: T10, Cytochrome P450 2B4 (Oryctolagus cuniculus, UniProt P00178); test: (§7) Mechanism based inhibition of rabbit cytochrome P450 CYP2B4 measured by 7-EFC O-deethylation activity; type: ADME
T10 sequence (P00178 whole entry): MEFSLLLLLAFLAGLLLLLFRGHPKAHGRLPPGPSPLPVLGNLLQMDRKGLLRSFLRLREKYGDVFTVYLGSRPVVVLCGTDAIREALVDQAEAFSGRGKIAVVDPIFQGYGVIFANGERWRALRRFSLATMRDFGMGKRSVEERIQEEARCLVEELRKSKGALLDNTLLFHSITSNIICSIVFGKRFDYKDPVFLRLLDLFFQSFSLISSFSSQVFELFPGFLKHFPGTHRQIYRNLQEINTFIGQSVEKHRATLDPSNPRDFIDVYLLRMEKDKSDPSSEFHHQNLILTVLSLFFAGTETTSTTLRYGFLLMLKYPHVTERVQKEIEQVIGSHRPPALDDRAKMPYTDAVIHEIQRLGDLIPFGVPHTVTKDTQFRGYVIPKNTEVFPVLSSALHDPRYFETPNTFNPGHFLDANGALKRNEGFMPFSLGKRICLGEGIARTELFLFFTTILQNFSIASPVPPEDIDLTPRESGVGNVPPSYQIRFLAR

CYP2B4 = biological target: T11, CYP2B4 (Oryctolagus cuniculus, UniProt P00178); test: as §7; type: ADME; conditions: rabbit, probe 7-EFC (O-deethylation)
T11 sequence (P00178 whole entry): T10 sequence (P00178 whole entry)

Cytochrome P450 2B4 [18] = biological target: T10, Cytochrome P450 2B4; test: Mechanism based inhibition of rabbit cytochrome P450 CYP2B4 partition ratio; type: ADME
[19] = biological target: Cytochrome P450 2E1 (Oryctolagus cuniculus) (UniProt P08682); test: Mechanism based inhibition of rabbit cytochrome P450 CYP2E1 measured by 7-EFC O-deethylation activity; conditions: probe 7-EFC (O-deethylation)
Sequence of Cytochrome P450 2E1 (Oryctolagus cuniculus) (P08682 whole entry, looked up): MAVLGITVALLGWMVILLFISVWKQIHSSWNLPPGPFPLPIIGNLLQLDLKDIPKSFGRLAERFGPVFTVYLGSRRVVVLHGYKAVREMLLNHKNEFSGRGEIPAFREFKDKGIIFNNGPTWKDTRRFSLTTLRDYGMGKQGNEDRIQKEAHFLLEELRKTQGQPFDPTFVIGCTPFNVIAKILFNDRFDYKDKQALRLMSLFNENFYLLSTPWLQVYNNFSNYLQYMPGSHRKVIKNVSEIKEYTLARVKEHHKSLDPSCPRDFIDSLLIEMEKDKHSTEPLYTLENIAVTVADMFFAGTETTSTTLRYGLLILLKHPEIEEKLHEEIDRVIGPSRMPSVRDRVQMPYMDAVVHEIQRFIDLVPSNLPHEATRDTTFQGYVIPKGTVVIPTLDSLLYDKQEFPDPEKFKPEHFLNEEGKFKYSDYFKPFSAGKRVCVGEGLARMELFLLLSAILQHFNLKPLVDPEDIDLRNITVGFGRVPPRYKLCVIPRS

kinact (CYP1A2 [1]): 0.00317 s⁻¹
Ki (Cytochrome P450 1A2 [2]): 9 µM
Compound: Cc1c(-c2cnccn2)ssc1=S [OLTIPRAZ]

Compound: S=C=NCc1ccccc1 [BENZYL ISOTHIOCYANATE]
kinact (CYP2B1 [3]): 0.011 s⁻¹
Ki (Cytochrome P450 2B1 [4]): 5.8 µM
partition_ratio (Cytochrome P450 2B1 [5]): 9

Ki (Cytochrome P450 2D6 [6]): 4.8 µM
kinact (CYP2D6 [7]): 0.00233 s⁻¹
Compound: Fc1cnc(N2CCN(CC3=NC(c4ccccc4)=NC3)CC2)nc1

Compound: O=C(NCCc1ccc([N+](=O)[O-])cc1)C(F)Cl (centres undefined)
mechanism based inhibition (Cytochrome P450 2B1 [8]): Cytochrome P450 mechanistic inhibitor: PMID 1971568

Ki (Cytochrome P450 2D6 [9]): 0.96 µM
kinact (CYP2D6 [10]): 0.000433 s⁻¹
Compound: CCN(CC)CCNC(=O)c1cc(Cl)c(N)cc1OC [METOCLOPRAMIDE]

partition_ratio (Cytochrome P450 2B1 [5]): 25
Compound: C#Cc1ccc2ccc(=O)oc2c1

Compound: O=C(NC(/C=C/S(=O)(=O)c1ccccc1)CCc1ccccc1)C(Cc1ccccc1)NC(=O)N1CCOCC1 (centres undefined)
mechanism based inhibition (Cytochrome P450 3A4 [11]): Cytochrome P450 mechanistic inhibitor: PMID 11038163

Compound: CN(C)c1ccc([C@H]2C[C@@]3(C)[C@@H](CC[C@@]3(O)/C=C\CO)[C@@H]3CCC4=CC(=O)CCC4=C32)cc1 [LILOPRISTONE]
mechanism based inhibition (Cytochrome P450 3A4 [12]): Cytochrome P450 mechanistic inhibitor: PMID 9697076

Compound: C#Cc1cc2ccccc2c2ccccc12
kinact (CYP2B1 [13]): 0.0075 s⁻¹
Ki (Cytochrome P450 2B1 [14]): 0.14 µM
kinact (CYP1A2 [15]): 0.000667 s⁻¹
Ki (Cytochrome P450 1A2 [16]): 0.03 µM

Ki (Cytochrome P450 2B4 [17]): 37 µM
kinact (CYP2B4): 0.0533 s⁻¹
partition_ratio (Cytochrome P450 2B4 [18]): 12
kinact [19]: 0.002 s⁻¹
Compound: C#CC(C)OC(C)(C)C (centres undefined)
mechanism based inhibition (Cytochrome P450 2B4 [17]; rabbit): Cytochrome P450 mechanistic inhibitor: PMID 15751959

Compound: C#CCN(C)C(C)CCCCC.C#CCN[C@@H](C)CCCCC.C#CCN[C@H](C)CCCCC (centres undefined)
kinact (CYP2B1 [13]): 0.00133 s⁻¹
Ki (Cytochrome P450 2B1 [14]): 0.8 µM
